Experimental findings from ChEMBL document CHEMBL1201862, “PubChem BioAssay data set” (2004) are described below.

Values joined by “and” are separate entries in the source; they are usually repeats but may differ in a detail not shown here. Equal entries are not always repeated.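 Cells were grown in 96-well plates and exposed to each compound for 48 hours at five concentrations; endpoints were interpolated linearly between bracketing concentrations, or set to the highest concentration if not reached. Abbreviation: GI50, concentration required for 50% inhibition of growth.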 Active and inactive are the calls of the source. Cut-off read from the data, not from the text of the source: active = GI50 up to about 1.1 µM and inactive = higher.

Test systems include BT-549; UACC-62; M14; NCI-H226; TK-10; A549; SF-539; DU-145; SF-295; OVCAR-5; OVCAR-8; OVCAR-3; HCT-116; SK-OV-3; Malme-3M; UO-31; KM12; EKVX; HCT-15; HCC 2998.
Test in all cases: inhibition of tumour cell growth, NCI panel, 48 h

For the molecule `O=C(CN1CCOCC1)NC1=Nc2ncccc2C(=O)NN1`, the GI50 in the assay with BT-549, in the assay with UACC-62, with M14, in the assay with NCI-H226, in the assay on TK-10 and in the assay on A549 was > 10 µM (inactive) each time. Also, the GI50 with SF-539, in the assay with DU-145, in the assay on SF-295, in the assay on OVCAR-5, with OVCAR-8 and in the assay with OVCAR-3 was > 10 µM (inactive) in each case. Besides, the GI50 in the assay on HCT-116, in the assay on SK-OV-3, in the assay on Malme-3M, in the assay on UO-31, in the assay with KM12 and with EKVX was > 10 µM (inactive) in each case. Besides, the GI50 in the assay with HCT-15 was > 10 µM.

`CC(=O)OCC(OC(C)=O)C(OC(C)=O)C(/C=N\Nc1nc2ccccc2c(=O)[nH]1)OC(C)=O` (configuration not stated): the GI50 with BT-549 was > 100 µM (inactive); in the assay on UACC-62, > 100 µM (inactive); in the assay with M14, > 100 µM (inactive); in the assay on NCI-H226, > 100 µM (inactive) and 89.9 µM (inactive); in the assay on TK-10, > 100 µM (inactive); with A549, > 100 µM (inactive). Further, the GI50 in the assay on SF-539, in the assay with DU-145, in the assay with SF-295, in the assay with OVCAR-5, in the assay on OVCAR-8 and with OVCAR-3 was > 100 µM (inactive) in each case. For the same molecule, the GI50 with HCT-116 was > 100 µM (inactive); in the assay with SK-OV-3 it was > 100 µM (inactive); in the assay on UO-31, > 100 µM (inactive); in the assay on KM12 it was > 100 µM (inactive); in the assay on EKVX it was > 100 µM (inactive); in the assay with HCT-15 it was > 100 µM.

Take `Fc1ccccc1C1SCC2=Nc3ccccc3CN21` (configuration not stated): the GI50 was > 100 µM (inactive) in the assay on HCC 2998; > 100 µM (inactive) with BT-549; 99.8 µM (inactive) with UACC-62; > 100 µM (inactive) in the assay with M14; > 100 µM (inactive) with TK-10; > 100 µM (inactive) in the assay on A549. Moreover, the GI50 in the assay with SF-539 was 94.8 µM (inactive); in the assay with DU-145, > 100 µM (inactive); in the assay with SF-295, 70.8 µM (inactive); in the assay with OVCAR-5, 92.9 µM (inactive); in the assay with OVCAR-8 it was > 100 µM (inactive); in the assay on OVCAR-3, 97.1 µM (inactive). Further, the GI50 is 48.5 µM (inactive) with HCT-116; > 100 µM (inactive) in the assay on SK-OV-3; > 100 µM (inactive) in the assay on UO-31; > 100 µM (inactive) with KM12; > 100 µM (inactive) with EKVX; > 100 µM in the assay on HCT-15.

Take `O=S1(=O)OCCOS(=O)(=O)C1S(=O)(=O)c1ccc2ccccc2c1`: the GI50 with HCC 2998, in the assay with BT-549, with M14, in the assay with TK-10, in the assay on A549 and with DU-145 was > 100 µM (inactive) each time. The GI50 in the assay on SF-295, with OVCAR-5, in the assay on OVCAR-8, in the assay on OVCAR-3, with HCT-116 and in the assay on Malme-3M was > 100 µM (inactive) in each case. The GI50 was > 100 µM (inactive) with UO-31, > 100 µM (inactive) in the assay on KM12, > 100 µM (inactive) in the assay with EKVX and > 100 µM with HCT-15.

For `CC(C)(C)CNCCCNc1ccc(Cl)cc1`, the GI50 with BT-549 was 70.6 µM (inactive); in the assay on UACC-62 it was 17.2 µM (inactive); with M14, 23 µM (inactive); in the assay on NCI-H226, 18.5 µM (inactive); in the assay on TK-10, 19.7 µM (inactive); in the assay with A549, > 100 µM (inactive). In addition, the GI50 in the assay with SF-539 was 92.9 µM (inactive); in the assay with DU-145, > 100 µM (inactive); in the assay on SF-295, 17.1 µM (inactive); with OVCAR-5, 51.8 µM (inactive); with OVCAR-8, > 100 µM (inactive); in the assay with HCT-116, 55.1 µM (inactive). In addition, the GI50 was > 100 µM (inactive) in the assay on SK-OV-3; 22 µM (inactive) in the assay with Malme-3M; 61.2 µM (inactive) with UO-31; 36 µM (inactive) with KM12; 48.6 µM (inactive) in the assay on EKVX; 93.1 µM in the assay on HCT-15.

Turning to `C[N+](C)([O-])CCC=C1c2ccccc2CCc2ccccc21`, the GI50 with BT-549 was 41.9 µM (inactive); with UACC-62 it was 17.1 µM (inactive); in the assay with M14, 31 µM (inactive); in the assay with NCI-H226, 31.4 µM (inactive); with TK-10 it was 53.2 µM (inactive); in the assay on A549 it was 28.1 µM (inactive). Moreover, the GI50 was 36.9 µM (inactive) in the assay with SF-539; 26 µM (inactive) with DU-145; 27.5 µM (inactive) with SF-295; 33.3 µM (inactive) in the assay with OVCAR-5; 23.4 µM (inactive) in the assay on OVCAR-8; 23.6 µM (inactive) with OVCAR-3. Besides, the GI50 with HCT-116 is 29.6 µM (inactive); in the assay with SK-OV-3, 37.8 µM (inactive); in the assay with Malme-3M, 18.5 µM (inactive); with KM12, 18.1 µM (inactive); in the assay on EKVX, 24.8 µM (inactive); in the assay on HCT-15, 27.7 µM.

Consider `C/C(O[Si](C(C)C)(C(C)C)C(C)C)=C(\C)C(=O)N(C)c1ccccc1Cl`, for which the GI50 with BT-549, in the assay on M14, in the assay with NCI-H226, in the assay with TK-10, with A549 and in the assay with SF-539 was > 100 µM (inactive) in each case. Also, the GI50 in the assay with DU-145, with SF-295, with OVCAR-5, with OVCAR-8, in the assay with OVCAR-3 and with HCT-116 was > 100 µM (inactive) each time. Further, the GI50 with Malme-3M is > 100 µM (inactive); with UO-31, > 100 µM (inactive); in the assay with KM12, > 100 µM (inactive); in the assay with EKVX it was > 100 µM (inactive); in the assay with HCT-15 it was > 100 µM.

Regarding `O=C(Nc1cccc(F)c1)c1cc2ccc(O)cc2o/c1=N\c1cccc(F)c1`, the GI50 is 27.1 µM (inactive) in the assay on HCC 2998; 4.82 µM (inactive) in the assay with BT-549; 5.57 µM (inactive) in the assay with UACC-62; 7.73 µM (inactive) in the assay on M14; 3.97 µM (inactive) in the assay on A549; 19.8 µM (inactive) in the assay on SF-539. The GI50 in the assay on DU-145 is 4.27 µM (inactive); in the assay with SF-295 it was 13.6 µM (inactive); in the assay with OVCAR-5, 34 µM (inactive); with OVCAR-8 it was 2.31 µM (inactive); with OVCAR-3, 4.91 µM (inactive); in the assay on HCT-116, 4.78 µM (inactive). Further, the GI50 was 13.2 µM (inactive) in the assay on SK-OV-3; 4.37 µM (inactive) with Malme-3M; 4.36 µM (inactive) in the assay with UO-31; 6.95 µM (inactive) in the assay on KM12; 3.78 µM (inactive) in the assay with EKVX; 3.15 µM in the assay on HCT-15.

`c1ccc([B-]2(c3ccccc3)OCCc3cccc[n+]32)cc1`: the GI50 in the assay on BT-549 is 31.6 µM (inactive); in the assay with UACC-62 it was 58.3 µM (inactive); in the assay on M14, 36.2 µM (inactive); in the assay on NCI-H226, 50.1 µM (inactive); in the assay with TK-10, 54.3 µM (inactive); in the assay on A549, 84.9 µM (inactive). The GI50 was 28.5 µM (inactive) with SF-539; 88.1 µM (inactive) with DU-145; 67 µM (inactive) in the assay with SF-295; > 100 µM (inactive) in the assay on OVCAR-5; 75 µM (inactive) with OVCAR-8; 51.8 µM (inactive) with OVCAR-3. Moreover, the GI50 in the assay with HCT-116 was 35 µM (inactive); in the assay on SK-OV-3 it was 74.8 µM (inactive); in the assay on Malme-3M it was 42.4 µM (inactive); with UO-31 it was 23.7 µM (inactive); with KM12 it was 96.4 µM (inactive); with EKVX, 91.8 µM (inactive). Also, the GI50 in the assay with HCT-15 was 44.5 µM.

Regarding `Cc1nc2ccccc2c(=O)n1NC(=S)Nc1ccc(Cl)cc1[N+](=O)[O-]`, the GI50 in the assay with BT-549 was > 100 µM (inactive); in the assay on UACC-62 it was > 100 µM (inactive); in the assay with M14 it was > 100 µM (inactive); with NCI-H226, > 10 µM (inactive); in the assay on TK-10, > 100 µM (inactive); in the assay on A549, > 100 µM (inactive). The GI50 with SF-539, in the assay with DU-145, in the assay on SF-295, in the assay on OVCAR-8, in the assay with OVCAR-3 and in the assay with HCT-116 was > 100 µM (inactive) each time. Moreover, the GI50 with SK-OV-3 was > 100 µM (inactive); in the assay with Malme-3M, > 100 µM (inactive); in the assay on UO-31, > 55.5 µM (inactive); in the assay on KM12, > 100 µM (inactive); in the assay with EKVX, 36.2 µM (inactive); in the assay on HCT-15, > 100 µM.

Consider `COC1=CC(=O)c2c(cc(COP(=O)(N(C)CCBr)N(C)CCBr)n2C)C1=O`, for which the GI50 in the assay on HCC 2998 is 0.494 µM (active); with BT-549, 1.38 µM (inactive); in the assay on UACC-62, 0.414 µM (active); with M14, 0.614 µM (active); in the assay with TK-10, 0.247 µM (active); with A549, 0.185 µM (active). Besides, the GI50 with SF-539 was < 0.0178 µM (active); with DU-145, < 0.0235 µM (active); with SF-295 it was < 0.0164 µM (active); with OVCAR-5, 0.583 µM (active); in the assay on OVCAR-8, 0.241 µM (active); with OVCAR-3, 2.16 µM (inactive). The GI50 was 0.0542 µM (active) in the assay on HCT-116; 0.918 µM (active) in the assay with SK-OV-3; 0.906 µM (active) with Malme-3M; 4.04 µM (inactive) in the assay on KM12; 2.03 µM (inactive) in the assay with EKVX; 0.491 µM with HCT-15.
